Experimental data reported in patent US20260125686A1, “COMPOSITIONS AND METHODS FOR MODULATION OF CFTR” (Cystic Fibrosis Foundation, priority 2022, published 2026).

Molecular target: Exon 22 truncated CFTR (Homo sapiens, UniProt P13569)
Assay: TECC-24 assay in 16HBEge-W1282X cells
Type: cell-based
Design: contain the first 1239 amino acids of a WT CFTR; endogenous in cells
Conditions: for FSK+VX-770 AUC/min: in combination SA-08 10 μM
Protocol: Electrophysiology. Clonal lines were seeded at a density of 4.5×10^5 cells cm-2 onto HTS Transwell 24-well filter inserts pre-coated with human collagen type IV. Cells were grown as submerged cultures in MEM (Gibco, 11095) containing 10% FBS and 1% Pen/Strep, and incubated at 37° C. and 5% CO2. Cells were treated from both the basolateral and apical side with fresh medium containing either control (vehicle) or test article for the treatment time indicated in the figure legends. After a total of 7 days, 16HBE cells typically formed electrically tight epithelia with a transepithelial resistance (Rt) of 200-600 Ω·cm2 and CFTR-mediated Cl— equivalent current (Ieq) was determined as described below.
Prior to functional (Ieq) studies, MEM was replaced with fresh HEPES-buffered (pH 7.4) solutions (assay buffer). A driving force for chloride ions was established through application of a basolateral to apical chloride ion gradient (see buffer composition below). Cell plates were mounted onto an automated robotic assay platform and equilibrated at ˜36° C. for 90 min. After equilibration, transepithelial voltage (Vt) and resistance (Rt) were monitored at ˜5 min intervals using a 24-channel transepithelial current clamp amplifier (TECC-24, EP Design, Bertem, Belgium). Electrode potential differences for each pair of Ag/AgCl voltage electrodes were also monitored at 5 min intervals by taking voltage measurements from a control plate with matching buffer solutions and 16HBE cells that were left untreated. Ieq was calculated from values of Vt and Rt using Ohm's law after correcting for series resistance and (electrode) voltage offsets unrelated to Vt. Ieq traces are plotted as mean±SD (n=3). The first 4 data points reflect baseline Ieq currents prior to sequential stimulation of CFTR with forskolin (10 μM) and VX-770/ivacaftor (1 μM). The last six data points were recorded in the presence of CFTR inhibitor CFTRinh-172 (20 μM). Agonists/antagonists were pre-diluted to 10-fold concentrations in assay buffer and add-ed to either the basolateral (forskolin) or apical (forskolin, VX-770/ivacaftor, and CFTRinh-172) side of the membrane (assay plates only). CFTR-mediated changes in Ieq, (i.e., delta forskolin, delta VX-770, delta CFTRinh-172, or the area under the curve (AUC) between forskolin and CFTRinh-172 addition) are used as a measure of functional CFTR surface expression or treatment-related functional rescue of mutant CFTR.
Assay buffer: CFTR-mediated transepithelial currents were recorded using a Cl— concentration gradient. The basolateral solution contained (mM): 137 NaCl, 4 KCl, 1.8 CaCl2, 1 MgCl2, 10 HEPES and D-Glucose, adjusted to pH 7.4 with NaOH/HCl ([CI-] total: 146.6 mM). The apical solution was matched to the basolateral except for (mM): 137 Na-gluconate replaced 137 NaCl ([Cl—] total: 9.6 mM).
The function of Exon 22 truncated CFTR protein was assayed by the transepithelial chloride conductance assay (TECC-24 assay), as depicted in FIG. 15A and FIG. 15B. 16HBEge-W1282X cells were incubated in 0.02% DMSO (vehicle) or VX445/VX661 prior to the TECC assay. Characteristic CFTR responses to forskolin, potentiator (VX-770), and CFTR inhibition (Inh-172) were recorded in the presence and absence of various doses and combinations of ASO treatments. […] ASO treatment further induced a larger chloride channel conductance compared to no ASO treatment.
The function of various CFTR proteins in the cells can be assessed by comparing the area under curve (AUC) of the induced chloride conductance obtained in the electrophysiology assays. The AUC of various mutant cell lines (e.g., 16HBEge-W1282X cells), with or without treatment, can be normalized to the AUC obtained from cells expressing WT CFTR protein and expressed as either a percentage of WT CFTR (% WT CFTR) or a ratio to WT CFTR (variant/WT CFTR). […]

Chain of Exon 22 truncated CFTR (P13569 with tags, fused parts or gaps): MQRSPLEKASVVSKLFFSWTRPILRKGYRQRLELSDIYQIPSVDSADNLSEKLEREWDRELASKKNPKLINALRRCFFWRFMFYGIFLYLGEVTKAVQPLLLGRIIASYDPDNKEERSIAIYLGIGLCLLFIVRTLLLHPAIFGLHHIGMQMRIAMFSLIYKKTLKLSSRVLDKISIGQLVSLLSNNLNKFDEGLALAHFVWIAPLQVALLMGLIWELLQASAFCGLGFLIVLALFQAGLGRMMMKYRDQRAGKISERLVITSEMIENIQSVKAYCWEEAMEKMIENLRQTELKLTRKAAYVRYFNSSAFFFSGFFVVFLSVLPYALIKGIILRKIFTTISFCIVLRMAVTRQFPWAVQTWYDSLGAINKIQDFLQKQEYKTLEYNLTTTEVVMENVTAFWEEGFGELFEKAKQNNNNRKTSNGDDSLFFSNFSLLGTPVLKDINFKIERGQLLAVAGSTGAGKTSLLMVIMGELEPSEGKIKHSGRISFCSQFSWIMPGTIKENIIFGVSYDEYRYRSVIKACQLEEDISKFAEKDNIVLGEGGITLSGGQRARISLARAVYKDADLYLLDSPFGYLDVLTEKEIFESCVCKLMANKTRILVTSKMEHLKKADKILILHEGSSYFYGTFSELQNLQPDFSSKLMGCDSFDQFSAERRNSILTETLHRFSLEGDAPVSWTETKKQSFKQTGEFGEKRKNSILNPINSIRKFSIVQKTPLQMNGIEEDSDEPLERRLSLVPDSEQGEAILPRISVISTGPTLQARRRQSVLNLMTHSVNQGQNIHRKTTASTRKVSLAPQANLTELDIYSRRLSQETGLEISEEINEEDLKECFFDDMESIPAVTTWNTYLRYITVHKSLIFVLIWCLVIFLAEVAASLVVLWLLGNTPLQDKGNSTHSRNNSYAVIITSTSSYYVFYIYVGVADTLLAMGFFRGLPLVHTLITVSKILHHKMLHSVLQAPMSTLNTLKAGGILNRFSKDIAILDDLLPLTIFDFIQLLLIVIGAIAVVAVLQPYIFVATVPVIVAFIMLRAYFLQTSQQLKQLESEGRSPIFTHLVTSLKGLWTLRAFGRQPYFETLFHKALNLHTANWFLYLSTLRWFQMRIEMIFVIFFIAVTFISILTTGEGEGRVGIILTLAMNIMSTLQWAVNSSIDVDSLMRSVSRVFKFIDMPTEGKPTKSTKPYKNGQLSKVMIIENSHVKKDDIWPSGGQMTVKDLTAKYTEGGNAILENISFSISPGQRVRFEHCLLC

“elexacaftor/ivacaftor/tezacaftor [Trikafta]” was tested. Which “Ex22 truncated CFTR function, of WT CFTR function” value (Trikafta (3/3 μM VX-661/445 48 h, 3 μM VX-770), no ASO) did it give?
Its value is about 3%.

Which “chloride conductance AUC, of WT” value (0.1 μM SA08, with Trikafta) does the source give for “ataaggtaaaagtgatgggatc (antisense ATAAGGTAAAAGTGATGGGATC; all 2'-MOE, all phosphorothioate, methylation of C not given here) [SA8, PS backbone, 2′-MOE]” here?
The value was “about 3.1%”.

And the “chloride conductance AUC, of WT” value (1 μM SA08, with Trikafta)?
The value was about 4.9%.

And the “chloride conductance AUC, of WT” value (2 μM SA08, with Trikafta)?
Its value is about 6.2%.

Which results are given for “aaagcaagcagtgttcaaatct (antisense AAAGCAAGCAGTGTTCAAATCT; all 2'-MOE, all phosphorothioate, methylation of C not given here) [SD10, PS backbone, 2′-MOE]”?
chloride conductance AUC, of WT (10 μM SD10, with Trikafta): about 9%; increase in AUC (of WT) (10 μM SD10, without Trikafta treatment): 2.9%; FSK+VX-770 AUC/min ((+) VX-445/VX-661 (3/3 μM), SD-10 100 μM): 11.5+/−0.5 μA/cm^2; FSK+VX-770 AUC/min ((+) VX-445/VX-661 (3/3 μM), SD-10 printed '(μM)' / 10 μM): 10.4+/−1.2 μA/cm^2; FSK+VX-770 AUC/min ((−) VX-445/VX-661, SD-10 100 μM): 4.6+/−0.4 μA/cm^2; FSK+VX-770 AUC/min ((−) VX-445/VX-661, SD-10 printed '(μM)' / 10 μM): 5.5+/−0.7 μA/cm^2
